Among the test systems are RXF-631 renal; SNB-19 CNS; SF-539 CNS; 786-0 renal; SNB-78 CNS; MALME-3M melanoma; LXFL 529 NSCLC; RXF 393 renal; XF 498 CNS; DMS 273 small cell lung; M19-MEL melanoma; DLD-1 colon; KM20L2 colon; DMS 114 small cell lung; HOP-18 NSCLC; EKVX NSCLC.
What all share (assay): inhibition of tumour cell growth, NCI panel, 48 h

Experimental findings from PubChem BioAssay (NCI) are described below.

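1) Cells in 96-well plates. 2) Compound, 48 h, 5 concentrations. 3) Linear interpolation between surrounding doses. 4) Unreached endpoint = highest concentration. TGI denotes the concentration required for complete inhibition of growth.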

As to `CNC(=O)NCCN1N=C(C)/C(=C\c2ccccc2)CC1=O`, the TGI with RXF-631 renal, in the experiment with SNB-19 CNS, in the experiment on SF-539 CNS, in the experiment on 786-0 renal, in the experiment on SNB-78 CNS and in the experiment on MALME-3M melanoma was more than 100 µM each time. Moreover, the TGI in the experiment on LXFL 529 NSCLC, with RXF 393 renal, in the experiment with XF 498 CNS, in the experiment on DMS 273 small cell lung, with M19-MEL melanoma and in the experiment with DLD-1 colon was more than 100 µM throughout.
Turning to `CC(=O)OCC1OC(n2c(O)c(N=NC(N)=S)c3ccc([N+](=O)[O-])cc32)C(OC(C)=O)C1OC(C)=O` (centres undefined), the TGI was more than 100 µM in the experiment with SNB-19 CNS; more than 100 µM in the experiment with KM20L2 colon; 70.2 µM with SF-539 CNS; 61.9 µM with DMS 114 small cell lung; 44.4 µM in the experiment with 786-0 renal; more than 100 µM in the experiment on SNB-78 CNS. Further, the TGI in the experiment on HOP-18 NSCLC was more than 100 µM; with MALME-3M melanoma, more than 100 µM; in the experiment on LXFL 529 NSCLC it was more than 100 µM; in the experiment with RXF 393 renal, 45.9 µM; in the experiment with XF 498 CNS it was 94.7 µM; with DMS 273 small cell lung it was 57.5 µM. For the same compound, the values for the TGI in the experiment with M19-MEL melanoma, with DLD-1 colon and in the experiment on EKVX NSCLC were 38.3 µM, more than 100 µM and more than 100 µM, respectively.
For the compound `CCOC(OC1=C(C#N)CCCC1)C(CC)[Se]c1ccccc1[N+](=O)[O-]` (centres undefined), the TGI in the experiment on SNB-19 CNS is 72.5 µM; in the experiment with KM20L2 colon, 31.4 µM; in the experiment on SF-539 CNS, 37.8 µM; with DMS 114 small cell lung, 30.1 µM; in the experiment with 786-0 renal, 34.2 µM; with SNB-78 CNS, more than 100 µM. Besides, the TGI with HOP-18 NSCLC is 74.1 µM; with MALME-3M melanoma, more than 100 µM; in the experiment on LXFL 529 NSCLC it was 89.2 µM; with RXF 393 renal it was 65.7 µM; in the experiment on XF 498 CNS it was 61.5 µM; with DMS 273 small cell lung, 36.2 µM. For the same compound, the TGI with M19-MEL melanoma was found to be 37.2 µM; in the experiment on DLD-1 colon, 35.6 µM; with EKVX NSCLC, 70 µM.
For `C=CCC1C(=O)CC2(C)C(CC=C)C(=O)CC12C` (centres undefined), the TGI in the experiment with RXF-631 renal, in the experiment with SNB-19 CNS, in the experiment with KM20L2 colon, with SF-539 CNS, with 786-0 renal and with HOP-18 NSCLC was more than 100 µM throughout. For the same compound, the TGI in the experiment on MALME-3M melanoma, in the experiment on LXFL 529 NSCLC, in the experiment with XF 498 CNS, with DMS 273 small cell lung, in the experiment with M19-MEL melanoma and in the experiment on DLD-1 colon was more than 100 µM throughout. In the experiment on EKVX NSCLC, this compound came in with a TGI of more than 100 µM.
As for `CN1C(=O)N(c2nc3ccccc3[nH]2)C(C)(C)C1=O`, the TGI in the experiment with SNB-19 CNS, with KM20L2 colon, in the experiment with SF-539 CNS, with DMS 114 small cell lung, in the experiment with 786-0 renal and with SNB-78 CNS was more than 100 µM throughout. Further, the TGI with HOP-18 NSCLC, in the experiment on MALME-3M melanoma, in the experiment with LXFL 529 NSCLC, in the experiment with RXF 393 renal, in the experiment on XF 498 CNS and with DMS 273 small cell lung was more than 100 µM in each case. Moreover, the TGI in the experiment with M19-MEL melanoma, with DLD-1 colon and in the experiment on EKVX NSCLC was more than 100 µM each time.
Consider `C/C(=N/N)c1sc(-c2nc(C)c(/C(C)=N\N)s2)nc1C`, for which the TGI in the experiment on SNB-19 CNS was more than 100 µM; in the experiment with KM20L2 colon, more than 100 µM; in the experiment on SF-539 CNS, more than 100 µM; in the experiment with DMS 114 small cell lung it was more than 63.8 µM; in the experiment with 786-0 renal, more than 100 µM; in the experiment on SNB-78 CNS, more than 100 µM. In addition, the TGI was more than 100 µM in the experiment with HOP-18 NSCLC; more than 100 µM in the experiment with MALME-3M melanoma; more than 100 µM with LXFL 529 NSCLC; more than 100 µM in the experiment with RXF 393 renal; more than 100 µM in the experiment on XF 498 CNS; more than 58.8 µM in the experiment on DMS 273 small cell lung. The TGI in the experiment on M19-MEL melanoma, in the experiment on DLD-1 colon and in the experiment on EKVX NSCLC was more than 100 µM each time.
In the case of `COC(=O)C(C#N)C1NC(=O)c2ccccc21` (centres undefined), the TGI in the experiment with RXF-631 renal, with SNB-19 CNS, in the experiment on KM20L2 colon, with SF-539 CNS, with DMS 114 small cell lung and in the experiment on 786-0 renal was more than 100 µM in each case. The TGI in the experiment on SNB-78 CNS, in the experiment on HOP-18 NSCLC, in the experiment on MALME-3M melanoma, in the experiment with RXF 393 renal, in the experiment with DMS 273 small cell lung and in the experiment with M19-MEL melanoma was more than 100 µM throughout. Moreover, the TGI in the experiment on DLD-1 colon and in the experiment on EKVX NSCLC was more than 100 µM throughout.
In the case of `Cc1ccc(NC(=O)CCC(=O)C2Cc3ccccc3C2=O)cc1C` (centres undefined), the TGI with SNB-19 CNS, with KM20L2 colon, in the experiment on SF-539 CNS, with DMS 114 small cell lung, with 786-0 renal and in the experiment on SNB-78 CNS was more than 100 µM each time. The TGI in the experiment with HOP-18 NSCLC, with MALME-3M melanoma, with LXFL 529 NSCLC, in the experiment on RXF 393 renal, in the experiment on XF 498 CNS and in the experiment with DMS 273 small cell lung was more than 100 µM throughout. Moreover, the TGI with M19-MEL melanoma, in the experiment on DLD-1 colon and in the experiment on EKVX NSCLC was more than 100 µM throughout.
